What was measured:
[1] = biological target: T1, human recombinant CBL-b (human Biotin CBL-b recombinant protein a.a. 39-426) (Homo sapiens, UniProt Q13191); test: Biochemical assay for CBL-b inhibition (ligand displacement TR-FRET); assay type: binding; conditions: 50 nM CBL-b, 0.3 μM Bodipy FL-Probe, read-out: IC50 (CBL-b inhibition, group)
T1 construct: human Biotin CBL-b recombinant protein a.a; 39-426; Biotin (biotinylated); made in house
Procedure, shortened: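 Biotinylated CBL-b (a.a. 39-426, 50 nM final) pre-incubated with compound 60 min at RT in HEPES/NaCl/Triton/BSA/TCEP buffer, then Bodipy FL probe (0.3 μM final) 60 min, then terbium-streptavidin 60 min. TR-FRET read at 665/615 nm; IC50 and % max inhibition from sigmoidal fits.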

[2] = system: NFAT signaling pathway in Jurkat NFAT reporter cells; test: Jurkat NFAT reporter assay; assay type: cell-based; conditions: Homo sapiens, 30 min with compound, then soluble anti-human CD3/CD28 antibody for 6 hours, luciferase readout, read-out: EC50 (Group)
Procedure, shortened: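 Jurkat cells bearing an NFAT-RE-driven luciferase reporter (1×10^5 per well) preincubated with Cbl-b inhibitor for 30 min, then stimulated 6 h with soluble anti-CD3/CD28. Luminescence read with Bio-Glo; values are fold change over anti-CD3/CD28-stimulated cells without inhibitor.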

T1 sequence (Q13191 39-426): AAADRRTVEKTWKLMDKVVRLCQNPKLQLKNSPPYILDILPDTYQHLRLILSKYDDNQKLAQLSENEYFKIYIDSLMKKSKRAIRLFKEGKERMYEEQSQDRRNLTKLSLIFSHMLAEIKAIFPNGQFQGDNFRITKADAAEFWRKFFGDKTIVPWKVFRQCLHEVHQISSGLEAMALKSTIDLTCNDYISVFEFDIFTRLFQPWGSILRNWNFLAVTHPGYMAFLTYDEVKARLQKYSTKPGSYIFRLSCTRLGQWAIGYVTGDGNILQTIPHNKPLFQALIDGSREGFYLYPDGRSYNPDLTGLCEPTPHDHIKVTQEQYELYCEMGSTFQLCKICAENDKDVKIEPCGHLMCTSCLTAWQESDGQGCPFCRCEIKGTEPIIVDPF

| IC50 [1] [nM] | EC50 [2] [nM] | SMILES |
| --- | --- | --- |
| < 80 | 300 to 1000 | Cn1cnnc1CC1(c2ccc3c(c2)C(=O)N(c2cc(CNCC4CC4(F)F)cc(Cl)n2)C3)CC(C#N)C1 (centres unmarked) [Compound 230, 3-(2-(6-Chloro-4-((((2,2-difluorocyclopropyl)methyl)amino)methyl)pyridin-2-yl)-3-oxoisoindolin-5-yl)-3-((4-methyl-4H-1,2,4-triazol-3-yl)methyl)cyclobutane-1-carbonitrile] |
| < 80 | 1000 to 10000 | Cn1cnnc1CC1(c2ccc3c(c2)C(=O)N(c2cc(CNc4nccs4)cc(Cl)n2)C3)COC1 [Compound 237] |
| < 80 | < 300 | CC(NC(C)(C)C1CC1)c1cc(Cl)nc(N2Cc3ccc(C4(Cc5nncn5C)COC4)cc3C2=O)c1 (centres unmarked) [Compound 248] |
| < 80 | < 300 | CCC(NC1CCCC1)c1cc(Cl)nc(N2Cc3ccc(C4(Cc5nncn5C)COC4)cc3C2=O)c1 (centres unmarked) [Compound 251, 2-(6-Chloro-4-(1-(cyclopentylamino)propyl)pyridin-2-yl)-6-(3-((4-methyl-4H-1,2,4-triazol-3-yl)methyl)oxetan-3-yl)isoindolin-1-one] |
| < 80 | < 300 | COC1CCCC1NCc1cc(Cl)nc(N2Cc3ccc(C4(Cc5nncn5C)COC4)cc3C2=O)c1 (centres unmarked) [Compound 253, 2-(6-Chloro-4-(((2-methoxycyclopentyl)amino)methyl)pyridin-2-yl)-6-(3-((4-methyl-4H-1,2,4-triazol-3-yl)methyl)oxetan-3-yl)isoindolin-1-one] |
| < 80 | 1000 to 10000 | Cn1cnnc1CC1(c2ccc3c(c2)C(=O)N(c2cc(CNCC4CC4)cc(Cl)n2)C3)CC2(CCC2)C1 [Compound 255, 2-(6-Chloro-4-(((cyclopropylmethyl)amino)methyl)pyridin-2-yl)-6-(2-((4-methyl-4H-1,2,4-triazol-3-yl)methyl)spiro[3.3]heptan-2-yl)isoindolin-1-one] |
| < 80 | 1000 to 10000 | Cc1cc(CNCC2CC2)cc(N2Cc3c(cc(-c4ccc(F)cc4-c4nncn4C)cc3C(F)(F)F)C2=O)n1 [Compound 256, 2-(4-(((Cyclopropylmethyl)amino)methyl)-6-methylpyridin-2-yl)-6-(4-fluoro-2-(4-methyl-4H-1,2,4-triazol-3-yl)phenyl)-4-(trifluoromethyl)isoindolin-1-one] |
| < 80 | 1000 to 10000 | Cc1cc(CN2CCC3(CC3)C2)cc(N2Cc3ccc(-c4ccc(F)cc4-c4nncn4C)cc3C2=O)n1 [Compound 259] |
| < 80 | < 300 | Cc1cc(CNCC2CC(F)(F)C2)cc(N2Cc3ccc(-c4ccc(F)cc4-c4nncn4C)cc3C2=O)n1 [Compound 260, 2-(4-((((3,3-Difluorocyclobutyl)methyl)amino)methyl)-6-methylpyridin-2-yl)-6-(4-fluoro-2-(4-methyl-4H-1,2,4-triazol-3-yl)phenyl)isoindolin-1-one] |
| < 80 | 1000 to 10000 | Cc1nc(N2Cc3ccc(-c4ccc(F)cc4-c4nncn4C)cc3C2=O)cc(CNCC2CC2)c1F [Compound 261, 2-(4-(((Cyclopropylmethyl)amino)methyl)-5-fluoro-6-methylpyridin-2-yl)-6-(4-fluoro-2-(4-methyl-4H-1,2,4-triazol-3-yl)phenyl)isoindolin-1-one] |
| < 80 | < 300 | Cc1cc(CNCC2CC2)cc(N2Cc3ccc(-c4c(F)cc(F)cc4-c4nncn4C)cc3C2=O)n1 [Compound 262] |
| < 80 | 1000 to 10000 | Cc1cc(CNCC2CC2)cc(N2Cc3ccc(-c4ncc(Cl)cc4-c4nncn4C)cc3C2=O)n1 [Compound 263, 6-(5-Chloro-3-(4-methyl-4H-1,2,4-triazol-3-yl)pyridin-2-yl)-2-(4-(((cyclo-propylmethyl)amino)methyl)-6-methylpyridin-2-yl)isoindolin-1-one] |
| < 80 | < 300 | Cn1cnnc1-c1cc(F)ccc1-c1ccc2c(c1)C(=O)N(c1cc(CNCC3CC3)cc(C(F)(F)F)n1)C2 [Compound 265, 2-(4-(((Cyclopropylmethyl)amino)methyl)-6-(trifluoromethyl)pyridin-2-yl)-6-(4-fluoro-2-(4-methyl-4H-1,2,4-triazol-3-yl)phenyl)isoindolin-1-one] |
| < 80 | 300 to 1000 | Cc1cc(CNCC2CC2(F)F)cc(N2Cc3ccc(-c4ccc(Cl)cc4-c4nncn4C)cc3C2=O)n1 (centres unmarked) [Compound 269] |
| < 80 | 1000 to 10000 | COc1ccc(-c2ccc3c(c2)C(=O)N(c2cc(CNCC4CC4)cc(C)n2)C3)c(-c2nncn2C)c1 [Compound 273, 2-(4-(((Cyclopropylmethyl)amino)methyl)-6-methylpyridin-2-yl)-6-(4-methoxy-2-(4-methyl-4H-1,2,4-triazol-3-yl)phenyl)isoindolin-1-one] |
| < 80 | < 300 | Cc1cc(CNCC2CCC2)cc(N2Cc3ccc(-c4ccc(Cl)cc4-c4nncn4C)cc3C2=O)n1 [Compound 274, 6-(4-Chloro-2-(4-methyl-4H-1,2,4-triazol-3-yl)phenyl)-2-(4-(((cyclobutyl-methyl)amino)methyl)-6-methylpyridin-2-yl)isoindolin-1-one] |
| < 80 | < 300 | Cn1cnnc1-c1cc(Cl)ccc1-c1ccc2c(c1)C(=O)N(c1cc(C(C)(C)NCC3CC3)cc(Cl)n1)C2 [Compound 275, 6-(4-Chloro-2-(4-methyl-4H-1,2,4-triazol-3-yl)phenyl)-2-(6-chloro-4-(2-((cyclopropylmethyl)amino)propan-2-yl)pyridin-2-yl)isoindolin-1-one] |
| < 80 | 1000 to 10000 | Cc1ccc(-c2ccc3c(c2)C(=O)N(c2cc(CNCC4CC4)cc(C)n2)C3)c(-c2nncn2C)c1 [Compound 277, 2-(4-(((Cyclopropylmethyl)amino)methyl)-6-methylpyridin-2-yl)-6-(4-methyl-2-(4-methyl-4H-1,2,4-triazol-3-yl)phenyl)isoindolin-1-one] |
| < 80 | < 300 | Cc1cc(C(C)NCC2CCC2)cc(N2Cc3ccc(-c4ccc(Cl)cc4-c4nncn4C)cc3C2=O)n1 (centres unmarked) [Compound 278, 6-(4-Chloro-2-(4-methyl-4H-1,2,4-triazol-3-yl)phenyl)-2-(4-(1-((cyclobutyl-methyl)amino)ethyl)-6-methylpyridin-2-yl)isoindolin-1-one] |
| < 80 | < 300 | Cc1cc(CNCC2CC(F)(F)C2)cc(N2Cc3ccc(-c4ccc(Cl)cc4-c4nncn4C)cc3C2=O)n1 [Compound 279, 6-(4-Chloro-2-(4-methyl-4H-1,2,4-triazol-3-yl)phenyl)-2-(4-((((3,3-difluoro-cyclobutyl)methyl)amino)methyl)-6-methylpyridin-2-yl)isoindolin-1-one] |
| < 80 | 300 to 1000 | Cc1cc(CNCC2CC2)cc(N2Cc3ccc(-c4ccc(Cl)cc4-c4nncn4C)cc3C2=O)c1 [Compound 280, 6-(4-Chloro-2-(4-methyl-4H-1,2,4-triazol-3-yl)phenyl)-2-(3-(((cyclopropyl-methyl)amino)methyl)-5-methylphenyl)isoindolin-1-one] |
| < 80 | < 300 | Cc1cc(C(C)NCC2CC(F)(F)C2)cc(N2Cc3ccc(-c4ccc(Cl)cc4-c4nncn4C)cc3C2=O)n1 (centres unmarked) [Compound 281, 6-(4-Chloro-2-(4-methyl-4H-1,2,4-triazol-3-yl)phenyl)-2-(4-(1-(((3,3-difluoro-cyclobutyl)methyl)amino)ethyl)-6-methylpyridin-2-yl)isoindolin-1-one] |
| < 80 | < 300 | Cc1cc(C(C)NCC2CC2)cc(N2Cc3ccc(-c4ccc(F)cc4-c4nncn4C)cc3C2=O)n1 (centres unmarked) [Compound 282, 2-(4-(1-((Cyclopropylmethyl)amino)ethyl)-6-methylpyridin-2-yl)-6-(4-fluoro-2-(4-methyl-4H-1,2,4-triazol-3-yl)phenyl)isoindolin-1-one] |
| < 80 | 300 to 1000 | Cc1cc(C(C)(C)NCC2CC2)cc(N2Cc3ccc(-c4ccc(F)cc4-c4nncn4C)cc3C2=O)n1 [Compound 293, 2-(4-(2-((Cyclopropylmethyl)amino)propan-2-yl)-6-methylpyridin-2-yl)-6-(4-fluoro-2-(4-methyl-4H-1,2,4-triazol-3-yl)phenyl)isoindolin-1-one] |
| < 80 | 1000 to 10000 | CCn1cnnc1-c1cc(F)ccc1-c1ccc2c(c1)C(=O)N(c1cc(CNCC3CC3)cc(C)n1)C2 [Compound 294, 2-(4-(((Cyclopropylmethyl)amino)methyl)-6-methylpyridin-2-yl)-6-(2-(4-ethyl-4H-1,2,4-triazol-3-yl)-4-fluorophenyl)isoindolin-1-one] |
| < 80 | < 300 | CCC(C)NCc1cc(C)nc(N2Cc3ccc(-c4ccc(F)cc4-c4nncn4C)cc3C2=O)c1 (centres unmarked) [Compound 295, 2-(4-((sec-Butylamino)methyl)-6-methylpyridin-2-yl)-6-(4-fluoro-2-(4-methyl-4H-1,2,4-triazol-3-yl)phenyl)isoindolin-1-one] |
| < 80 | 1000 to 10000 | Cc1cc(CNCC2CC2)cc(N2Cc3c(F)cc(-c4ccc(F)cc4-c4nncn4C)cc3C2=O)n1 [Compound 296] |
| < 80 | < 300 | Cc1cc(CNC(C2CC2)C2CC2)cc(N2Cc3ccc(-c4ccc(F)cc4-c4nncn4C)cc3C2=O)n1 [Compound 298, 2-(4-(((Dicyclopropylmethyl)amino)methyl)-6-methylpyridin-2-yl)-6-(4-fluoro-2-(4-methyl-4H-1,2,4-triazol-3-yl)phenyl)isoindolin-1-one] |
